{
  "source": "patent US7745402B2",
  "about": "“Method of treating pancreatitis” (Lundbeck Inc., priority 2005, dated 2010)",
  "key": {"macrophages": {"test_system": "macrophages", "experiment": "In vivo macrophage homing to the pancreas, bioluminescence imaging", "parameters": "species or system FVB/n mice", "details": "single dose of hemin 24 h prior to cell transfer", "protocol": "FIG. 4: Effect of hemin on in vivo macrophage homing to the pancreas using bioluminescence imaging. (A) Experimental scheme of cell transfer. Hemin (H) was injected 3× intraperitoneally into luciferase-overexpressing (+/+) mice, then peritoneal cells were harvested and macrophages were selected using anti-Mac-1 magnetic beads. Luciferase/Mac-1 double-positive cells were transferred intraperitoneally to wild-type (luciferase −/−) mice that were preinjected with one dose of H or vehicle (V) 24 h prior to the transfer. This hemin injection is necessary to induce pancreatic chemokines (FIG. 3C). (B) Live images of recipient intact anesthetized mice were taken 5 min (a) or 24 h (b) after cell transfer. Livers and pancreata were removed 24 h after the transfer followed by imaging (c). The signal intensity scale bar is shown below each image. (C) A duplicate of the pancreata shown in image c of panel B (from recipients receiving donor cells from H-injected animals) was double-stained with antibodies to luciferase and F4/80. […] Bar in panel c=50 μm.\nThe present invention offers a novel approach of immune-mediated therapy via the unanticipated effect of hemin on leukocyte recruitment to the pancreas. Based on a mouse animal model of pancreatitis, the therapeutic approach of the present invention has applicability to other mammalian, particularly human, pancreatitis. […]"}, "[1]": {"test_system": "caerulein-induced pancreatitis", "experiment": "Caerulein-induced pancreatitis and its pulmonary complications after hemin pretreatment", "format": "in vivo, Balb/c mice", "details": "hemin 3× every other day, then caerulein hourly 7×; 12 h", "protocol": "(A,B) Mice were injected intraperitoneally with hemin (H) or vehicle (V; 7 mice/group) every other day (3×; arrows) followed by injection with either saline (Sal) or caerulein (Cae) hourly (7×; arrows) and then harvesting of the pancreata and lungs at 12 h after first Sal or Cae injection. Sera were collected for amylase/lipase measurement. (C-E) Pancreatic and lung tissues (from panels A,B) were used to determine trypsin (pmol/mg protein) and myeloperoxidase (MPO; ng/mg wet tissue) enzyme activities and to assess extent of tissue injury. Data are presented as mean±SD. A representative hematoxylin and eosin staining of lung is shown (scale bar=50 μM).\nMice and pancreatitis models. Experiments and animal care were performed according to approved institutional guidelines. […]\nAnimal procedures. […] Immunofluorescence staining was performed as described (29) and images were analyzed using confocal microscopy. Total tissue lysates were prepared by homogenization in Laemmli sample buffer and analyzed by SDS-PAGE followed by transfer to membranes for blotting and protein visualization by enhanced chemiluminescence. Trypsin activity was determined using a fluorimetric assay and the substrate Boc-Gln-Ala-Arg-MCA (Peptides International Inc.; Louisville, Ky.), and comparison to a standard curve generated with purified trypsin as described. […]"}},
  "data": [
    {"substance": "Hemin", "values": [
      {"measurement": "macrophage recruitment to the pancreas after hemin priming of recipients", "setting": "macrophages", "value": "stimulates pancreatic chemokine production and triggers migration of macrophages to the pancreas"},
      {"measurement": "lung histology (hemorrhage, alveolar collapse)", "setting": "[1]", "value": "marked hemorrhage and alveolar collapse in vehicle (a) compared to hemin (b) pretreated mice"}
    ]}
  ]
}
